Measured values reported in patent US10836726B2, “AZO-quaternary pyridinium salts with acid-enhanced antibacterial efficacy, methods of use, methods of synthesis, and uses thereof” (priority 2016, dated 2020).

Tests used:
Type in all cases: cell-based
[1] = test system: Streptococcus mutans (S. mutans, UA159); assay: Minimum bactericidal concentration (MBC) determination by agar colony formation; details: more effective in acidic conditions
Text: The inventor observed similar pH-sensitive antibacterial activity of Azo-QPS-C16 towards the Gram-positive, lactic acid producing, cariogenic bacteria S. mutans.
Bacterial strains and growth conditions. Streptococcus mutans (S. mutans, UA159) and Escherichia coli (E. coli, K12) were purchased from ATCC (American Type Culture Collection, Manassas, Va., USA). Todd Hewitt Broth (THB), and Lysogeny Broth (LB) powder and agar were purchased from BD (Becton, Dickinson and Company, Franklin Lakes, N.J., USA). Planktonic cultures were inoculated from 25% (by volume) glycerol frozen stocks stored at −80° C. E. coli cultures were grown in LB at 37° C. in a shaker-incubator. S. mutans cultures were grown in THB at 37° C. with 5% (by volume) CO2 overnight.
(§1) In a 96-well plate, 2 μL of Azo-QPS-C16 at various concentrations in dimethyl sulfoxide (DMSO) were added to 98 μL of bacteria suspension per well for a final concentration ranging from a 2-fold dilution series between 40 to 1.25 μg/mL of Azo-QPS-C16. […] E. coli were cultured at 37° C., and the OD600 of each well was measured by a Tecan Spark microplate reader (Männedorf, Switzerland) every 15 minutes for up to 19 hours, with 30 seconds shaking before each measurement. S. mutans were grown at 37° C. with 5% CO2, and the OD600 of each well was measured periodically using a Molecular Devices (Sunnyvale, Calif.) SpectraMax M5 microplate reader. […]

[2] = test system: Escherichia coli (E. coli, K12); assay: Bacterial growth curves (OD600) after exposure in pH buffers
Protocol: (§2) Azo-QPS-C16 was effective on both […] bacteria. The ability of bacteria to proliferate after exposure to Azo-QPS-C16 was characterized by adding growth medium and measuring the optical density (OD) at 600 nm every 15 minutes in pH 4.1, 5.8, and 7.9 buffer. […] However, exposure at pH 7.9 required a much higher concentration (40 μg/mL) to inhibit cell growth. […] The pH dependence of bactericidal activity of Azo-QPS-C16 in terms of minimum bactericidal concentration (MBC) was evaluated by inoculating cultures onto a Lysogeny Broth (LB) agar plate after treating the cells with a twofold dilution series of Azo-QPS-C16.
(§3) Bacterial strains and growth conditions. […]
as §1

[3] = test system: Escherichia coli (E. coli, K12); assay: Minimum bactericidal concentration (MBC) determination by agar colony formation; details: MBC increased as pH increased
Protocol: as §2, §3, §1

`C=C(C)C(=O)Oc1ccc(/N=N/c2cc[n+](CCCCCCCCCCCCCCCC)cc2)cc1.[Br-]` [Azo-QPS-C16, (E)-1-hexadecyl-4-((4-(methacryloyloxy)phenyl)diazenyl)-pyridinium bromide] was tested, and the “MBC-based effectiveness in acidic versus mildly basic conditions” value [1] was 8 fold, the “concentration that fully inhibited E. coli growth up to 19 hours” value ([2]; exposure at pH 4.1, 45 min treatment, OD 600 nm) was 2.5 µg/mL and the “concentration required to inhibit cell growth” value ([2]; exposure at pH 7.9, E. coli) was 40 µg/mL. The “difference in MBC between pH 4.1 and pH 7.9” value [3] was 16 fold.
